This is an account of results in patent US9399032B2, “Methods and compositions for treating degenerative and ischemic disorders” (The General Hospital Corporation, priority 2009, dated 2016).

Counter-ions that a name gives are not always drawn.

human H 1 receptor, sequence (P35367 whole entry): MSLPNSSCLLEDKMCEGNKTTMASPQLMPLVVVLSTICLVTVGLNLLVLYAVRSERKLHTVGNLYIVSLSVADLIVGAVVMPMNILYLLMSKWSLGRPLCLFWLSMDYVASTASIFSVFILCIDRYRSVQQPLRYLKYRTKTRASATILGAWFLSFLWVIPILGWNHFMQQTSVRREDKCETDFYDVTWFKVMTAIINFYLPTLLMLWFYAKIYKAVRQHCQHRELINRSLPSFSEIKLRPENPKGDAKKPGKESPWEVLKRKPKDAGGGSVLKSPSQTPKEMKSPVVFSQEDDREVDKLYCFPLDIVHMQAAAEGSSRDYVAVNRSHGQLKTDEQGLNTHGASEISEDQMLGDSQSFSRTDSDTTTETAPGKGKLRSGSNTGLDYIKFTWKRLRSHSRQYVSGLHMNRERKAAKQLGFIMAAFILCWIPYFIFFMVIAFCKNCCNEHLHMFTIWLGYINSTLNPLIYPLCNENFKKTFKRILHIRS

In one test the test system is isolated mitochondria. The test can be described thus: Effect of phosphoethanolamine on uncoupled respiration of isolated mitochondria. The following applies: ~1 min incubation, 1 μM CCCP. The class given is biochemical. Here is the method:
Mitochondria were isolated from C57BL/6 mouse kidneys by differential centrifugation and resuspended in experimental buffer to a final concentration of 0.15 mg/ml. Mootha et al., Am J Physiol 272:H769 (1997). State 2 respiration was initiated with the addition of 2.5 mM glutamate and 2.5 mM malate. State 3 respiration was initiated with the addition of 50 nmoles ADP. […] O2 consumption was monitored with a Fiber Optic Oxygen sensor probe from Ocean Optics, and NADH (endogenous, 370±7 nm excitation, 440±4 nm emission) and membrane potential (1.25 μM TMRM, 546±7 nm excitation, 590±4 nm emission) were measured with a Perkin-Elmer LS50B fluorimeter. A representative trace is shown from 6 independent experiments. 1M stock of phosphoethanolamine (Sigma P0503) was made in sterile water and pH was adjusted to 7.4 by 1N potassium hydroxide solution.
The upregulation of phosphoethanolamine was confirmed by orthogonal chromatography, as well as via ^31P-NMR. […] Previous studies have shown that phosphoethanolamine can be elevated in tumor cells, and that ethanolamine and PEA can directly silence mitochondrial OXPHOS. Zhu et al., J Lipid Res 49: 2197 (2008); and Modica-Napolitano et al., Biol Psychiatry 55:273 (2004). […]
In the case of `NCCOP(=O)(O)O` [PEA, phosphoethanolamine], the “uncoupler-stimulated respiration in isolated mitochondria” value is “blocks uncoupler-stimulated respiration”.

For a further test, the system named is STHdhQ111/111 striatal cells. Kind of test: Viability of mutant huntingtin striatal cells after serum withdrawal (CellTiter-Glo). Particulars: serum free media, 24 hours. The format is cell-based, murine. Here is the method: Wherever indicated, mutant (STHdh^Q111/111) striatal cells were grown in serum free media for ˜24 hours before ATP measurement. Luminescence was measured in DTX880 multimode detector. Multiple concentrations (between 100 μM and 0.5 μM) of rotenone, antimycin, oligomycin, meclizine, hydroxyzine (Spectrum chemical), thiethylperazine (Prestwick), cyproheptadine (Sigma), pyrilamine (Spectrum chemical), tripelennamine (Spectrum chemical), diphenhydramine (Spectrum chemical), clemastine (Prestwick), bromopheniramine (Spectrum chemical), pheniramine (Spectrum chemical), promethazine (MSDiscovery 01500510), atropine (Sigma), and scopolamine (Sigma) were tested for their protective effect on STHdh^Q111/111 cells in serum free media. The dose which conferred maximum protection is shown. Luminescence was measured in DTX880 multimode detector.
Although it is not necessary to understand the mechanism of an invention, it is believed that the observed cell survival may be due to suppressed apoptosis based on caspase 3 and 7 cleavage. Improved cell viability was confirmed by microscopy.
`Cc1cccc(CN2CCN([C@@H](c3ccccc3)c3ccc(Cl)cc3)CC2)c1` [S-meclizine, S-Meclizine]: the “protection of STHdhQ111/111 cells after serum withdrawal” value is given as “is protective”.

The next test has as its system MCH58 fibroblasts. Kind of test: Glucose versus galactose cell growth screen (metabolic state-dependent lethality). The following applies: approximately 10 μM compound, 72 hours; log10 fold change of normalized cell number in glucose versus galactose.
Method: The assay included monitoring or measuring cell growth in cells that are grown in glucose (which allows the cell to utilize glycolysis) or in galactose (which switches the cell energy production from glycolysis to the OXPHOS pathway).
The high glucose medium was replaced with 10 mM glucose or 10 mM galactose wherever indicated. All media contained 1 mM pyruvate and 4 mM glutamine.
Cell number quantification high throughput assays were performed as follows. […] 24 hours later, cells were washed twice in PBS and media was replaced with either 10 mM glucose or 10 mM galactose containing media.
Approximately 100 nL of each compound was pin-transferred in duplicate into the plates with a steel pin array using the CyBi-Well robot (CyBio). […] Compound-treated plates were incubated at 37° C. for 72 hours. […] Wells were then washed once and stored in PBS. Cell culture plates were stored at 4° C. until time of imaging, which was at most 24 hours after fixation.
Imaging was performed by Arrayscan VTi automated microscope (ThermoFisher Scientific) with the use of an automated plate stacker. Appropriate filter sets for the detection of the Hoescht fluorescent signal were used. Four non-overlapping images at 5× magnification (NA 0.25) were acquired for a field of view of 1.3 mm×1.3 mm per image. The plate stacker and microscope including an auto-focusing algorithm were controlled entirely with ArrayScan software. Images were captured and stored simultaneously in at least two independent locations. Image analysis was performed using the freely available open-source software package CellProfiler. […] Images were analyzed individually by first identifying nuclei using the Hoescht staining signal.
Total number of nuclei per field were recorded, and the four images per well were totaled to give the cell count per well. Computation was performed using a UNIX computer cluster. Appropriate masking of each nucleus was ensured by visually monitoring each batch at its onset and intermittently throughout the run.
The fibroblast cells were seeded on Day 0 and incubated for 24 hours in standard culture media.
Normalized cell counts were computed separately for each 96-well plate by dividing the cell count of each well with the trimmed mean (the average after discarding the largest and smallest value) of the cell counts for the 16 DMSO treated wells. […] The remaining replicate measurements were averaged, and fold changes were computed as the ratio between the average normalized counts for the glucose and galactose screens. To evaluate statistical significance, Z-scores were computed for each well against the DMSO (null) distribution and averaged Z-scores across replicates. Wells with average Z-score greater than 2.5 were considered significant.
By jointly analyzing the glucose and galactose results, a glucose-galactose cell growth ratio can be calculated (Sglu/gal) that represents the log10 fold-change in cell growth in a glucose rich media divided by the log10 fold-change in cell growth in a galactose rich media. […] Low Sglu/gal scores (e.g., ranging between approximately (−) 0.1 to (−) 0.7) may arise from inhibition of glycolysis or from inhibition of proliferation, since cells grown in glucose-rich media divide more rapidly.
Take `O=C(N/N=C/c1ccc([N+](=O)[O-])o1)c1ccc(O)cc1` [Nifuroxazide]: the “Sglu/gal (log10 fold change) Score” value was 0.34.
As to `C[C@@]12C(=O)OC(=O)[C@]1(C)[C@H]1CC[C@@H]2O1` [cantharidin], the “Sglu/gal (log10 fold change) Score” value is on record as −0.33.
For the compound `C[C@@H]1CC[C@H]2[C@@H](C)C(=O)O[C@@H]3O[C@@]4(C)CC[C@@H]1[C@]32OO4` [Artemisinin], the “Sglu/gal (log10 fold change) Score” value turned out to be 0.17.
Turning to `Oc1c(Cl)cc(Cl)c2cccnc12` [chloroxine], the “Sglu/gal (log10 fold change) Score” value is on record as −0.23.
Regarding `Clc1ccc(C(Cn2ccnc2)OCc2csc3c(Cl)cccc23)c(Cl)c1` (stereo not shown) [Sertaconazole nitrate], the “Sglu/gal (log10 fold change) Score” value was 0.19.
With `CC(C)=CCC[C@]1(C)C=Cc2c(O)c3c(c(CC=C(C)C)c2O1)O[C@]12C(=C[C@@H]4C[C@H]1C(C)(C)O[C@@]2(C/C=C(/C)C(=O)O)C4=O)C3=O` [gambogic acid], the “Sglu/gal (log10 fold change) Score” value is −0.34.
Consider `O=c1[nH]c(=O)n([C@H]2C[C@H](O)[C@@H](CO)O2)cc1F` [floxuridine], for which the “Sglu/gal (log10 fold change) Score” value is given as −0.28.
As to `COc1cc2c(cc1OC)[C@@H]1C(=O)c3c(O)cc4c(c3O[C@@H]1CO2)C=CC(C)(C)O4` [Alpha-toxicarol], the “Sglu/gal (log10 fold change) Score” value is on record as 0.91.
In the case of `O=C1O[C@H]([C@@H](O)CO)C(O)=C1O` [Ascorbic acid], the “Sglu/gal (log10 fold change) Score” value was found to be 0.15.
Take `CC[C@@]1(O)C[C@H](O[C@H]2C[C@H](N(C)C)[C@H](O)[C@H](C)O2)c2c(cc3c(c2O)C(=O)c2c(O)ccc(O)c2C3=O)[C@H]1C(=O)OC` [pyrromycin]: the “Sglu/gal (log10 fold change) Score” value is given as −0.30.
`COc1c(-c2coc3cc4c(cc3c2=O)CC(O)C(C)(C)O4)ccc2c1C=CC(C)(C)O2` (stereo not shown) [Mundulone]: the “Sglu/gal (log10 fold change) Score” value came to 0.50.
For `CC(=O)O[C@H]1C(=O)[C@@]2(C)[C@H]([C@H](OC(=O)c3ccccc3)[C@]3(O)C[C@H](OC(=O)[C@H](O)[C@@H](NC(=O)c4ccccc4)c4ccccc4)C(C)=C1C3(C)C)[C@]1(OC(C)=O)CO[C@@H]1C[C@@H]2O` [paclitaxel], the “Sglu/gal (log10 fold change) Score” value is reported as −0.22.
In the case of `C#C[C@]1(OC(C)=O)CC[C@H]2[C@@H]3CCC4=C[C@@H](OC(C)=O)CC[C@@H]4[C@H]3CC[C@@]21C` [Ethynodiol diacetate], the “Sglu/gal (log10 fold change) Score” value was found to be 0.15.
On to `CCOC(=O)C1=C[C@]2(CC)CCCN3CCc4c(n1c1ccccc41)[C@@H]32` [Vinpocetine], for which the “Sglu/gal (log10 fold change) Score” value was found to be 0.23.
Regarding picropodophyllotoxin acetate, the “Sglu/gal (log10 fold change) Score” value is on record as −0.24.
As for `O=c1[nH]c(=O)n([C@H]2C[C@H](O)[C@@H](CO)O2)cc1C(F)(F)F` [Trifluridine], the “Sglu/gal (log10 fold change) Score” value is on record as −0.26.
Regarding `COc1ccc(C[C@H]2NC[C@H](O)[C@H]2OC(C)=O)cc1` [anisomycin], the “Sglu/gal (log10 fold change) Score” value is reported as −0.24.
Nonoxynol-9: the “Sglu/gal (log10 fold change) Score” value was 0.46.
For the compound Deguelin(-), the “Sglu/gal (log10 fold change) Score” value stood at 0.69.
As for `CCN[C@H]1C[C@H](C)S(=O)(=O)c2sc(S(N)(=O)=O)cc21` [Dorzolamide hydrochloride], the “Sglu/gal (log10 fold change) Score” value is given as 0.17.
Still for that read-out and setting: for `COc1cc([C@@H]2c3cc4c(cc3[C@H](O)[C@H]3COC(=O)[C@H]23)OCO4)cc(OC)c1OC` [Podophyllotoxin] the value was −0.27; for `[H]/N=C(\N/C(=N/[H])NCCCCCCNC(=N)NC(=N)Nc1ccc(Cl)cc1)Nc1ccc(Cl)cc1` [Chlorhexidine], 0.16; for `CC(=O)O[C@@H]1C[C@@]2(C)[C@H](c3ccoc3)C[C@H]3O[C@]32[C@]2(C)C(=O)C(O)=C3C(C)(C)C(=O)C=C[C@]3(C)[C@@H]12` [anthothecol], −0.30.
As for `C=C1C(=O)O[C@H]2C[C@@H]1C(OC(C)=O)C/C(C)=C/CC/C(C)=C/CC[C@@]2(C)O` (stereo partly shown) [crassin acetate], the “Sglu/gal (log10 fold change) Score” value is reported as −0.35.

The test is the same for the next values; noted with them: galactose versus glucose.
With `CN(C)CCC=C1c2ccccc2CCc2ccccc21` [amitriptyline], the “inhibitory activity against cell growth in galactose (SAR analysis)” value is “moderate inhibitory activity”.

The target in another test is human H 1 receptor (Homo sapiens, UniProt P35367). Kind of test: H1 receptor competitive binding assay with [3H]pyrilamine. The following applies: 3 nM [3H]pyrilamine. Here is the method:
The ability of each enantiomer to bind to the H1 receptor was evaluated using a competitive binding experiment with the racemate. In vitro binding of R-meclizine (R-Mec) and S-meclizine (S-Mec) to human H 1 receptor was determined by competitive binding assays in the presence of 3 nM [3H]pyrilamine. Non-specific binding was determined in the presence of excess (1 μM) unlabeled Pyrilamine. IC50 were determined by non-linear regression analysis of the competition curves.
As for `Cc1cccc(CN2CCN([C@H](c3ccccc3)c3ccc(Cl)cc3)CC2)c1` [R-meclizine], the “affinity on the H1 receptor” value is on record as “high affinity”.
As for `Cc1cccc(CN2CCN([C@@H](c3ccccc3)c3ccc(Cl)cc3)CC2)c1` [S-meclizine, S-Meclizine], the “affinity on the H1 receptor” value is on record as “much weaker affinity”.

In a further test the test system is Adult rat ventricular cardiomyocytes. The test can be described thus: Simulated ischemia-reperfusion injury in isolated cardiomyocytes. The format is cell-based. Particulars: 60 minutes ischemia, 30 minutes reperfusion. Here is the method: The ability of meclizine to protect isolated cardiomyocytes and isolated hearts from ischemic injury was investigated as follows Adult rat ventricular cardiomyocytes were isolated by endotoxin-free collagenase perfusion, and the simulated ischemia-reperfusion injury was performed as previously described (Wojtovich and Brookes, Basic Res. Cardiol., 104:121-129 (2009)). Control cells were exposed to DMSO for 20 minutes. Test cells were exposed to either vehicle or doses of meclizine for 20 minutes, which was washed out before being subjected to ischemia for 60 minutes followed by reperfusion for 30 minutes under normoxic conditions in normoxic glucose-replete buffer at pH 7.4. Cell viability was assayed by Trypan blue exclusion. VO2 was assessed by isolating mitochondria and measuring both respirating cells and mitochondria using a Clark oxygen electrode (Wojtovich, supra).
In the case of `CN1[C@@H]2CC[C@H]1C[C@@H](OC(=O)C(CO)c1ccccc1)C2` (stereo partly shown) [atropine], the “protection of cardiomyocytes against I/R (cell viability, Trypan blue)” value (shortened to “protection of cardiomyocytes against I/R”) is reported as “not observed”.
Same read-out and setting: for `CN(C)CCC(c1ccccc1)c1ccccn1` (stereo not shown) [pheniramine] the value was “not observed”.
On to `COc1ccc(CN(CCN(C)C)c2ccccn2)cc1` [pyrilamine], for which the “protection of cardiomyocytes against I/R” value is recorded as “not observed”.
Take `CN1[C@@H]2C[C@@H](OC(=O)[C@H](CO)c3ccccc3)C[C@H]1[C@@H]1O[C@@H]12` [scopolamine]: the “protection of cardiomyocytes against I/R” value is “not observed”.

For the next test, the system named is purified recombinant PCYT2. The test can be described thus: PCYT2 enzyme assay in vitro. The class given is biochemical. Particulars: 50-1000 μM meclizine or 50-600 μM S-meclizine. Here is the method:
FIGS. 16 C-D are line graphs showing that PCYT2 (CTP:phosphoethanolamine cytidylyltransferase 2) is a target of meclizine (16C) and S-meclizine (16D). PCYT2 enzyme assays were carried out in vitro with purified recombinant PCYT2 in the presence of 50-1000 μM meclizine or 50-600 μM of S-meclizine.
CTP:Phosphoethanolamine Cytidylyltransferase (PCYT2) catalyzes the formation of CDP-ethanolamine, which is often the rate regulatory step in the PE-Kennedy pathway. See, e.g., Fullerton et al., J Biol Chem 18; 284(38):25704-13 (2009). To determine whether meclizine affects PCYT2 activity, PCYT2 (CTP:phosphoethanolamine cytidylyltransferase 2) enzyme assays were carried out in vitro with purified recombinant PCYT2 in the presence of 50-1000 μM meclizine or 50-600 μM of S-meclizine. For additional details see Zhu et al., J Lipid Res 49: 2197 (2008).
As for `Cc1cccc(CN2CCN([C@@H](c3ccccc3)c3ccc(Cl)cc3)CC2)c1` [S-meclizine, S-Meclizine], the “PCYT2 binding and inhibition” value was “binD to, and inhibit”.

Another test deals with AMPK. Kind of test: Western blot detection of AMPK phosphorylation. The format is cell-based. Particulars: C2C12 myotubes, 24 hours of treatment. Here is the method: The ability of meclizine, S-meclizine and R-meclizine to activate AMPK in C2C12 myotubes was also evaluated using Western blot detection of AMPK phosphorylation in C2C12 myotubes following 24 hours of treatment with R-meclizine (R-Mec), S-meclizine (S-Mec) and the racemic mixture (Rac-Mec).
As for `Cc1cccc(CN2CCN([C@H](c3ccccc3)c3ccc(Cl)cc3)CC2)c1` [R-meclizine], the “AMPK activation (phosphorylation)” value is on record as “activate AMPK”.
On to `Cc1cccc(CN2CCN([C@@H](c3ccccc3)c3ccc(Cl)cc3)CC2)c1` [S-meclizine, S-Meclizine], for which the “AMPK activation (phosphorylation)” value is reported as “activate AMPK”.

For the next test, the system named is C2C12 myotubes. Kind of test: [3H]-2-deoxyglucose uptake. The format is cell-based. The following applies: 50 micromolar, four hours. Here is the method:
Fully differentiated C2C12 myotubes were subjected to a glucose uptake protocol, as follows. Briefly, C2C12 myotube cells were incubated for four hours in serum-free media containing either 0.1% DMSO as a control, 50 micromolar meclizine, 50 micromolar S-meclizine, or 2 mM metformin. Cells were subsequently incubated for thirty minutes in serum and glucose free buffer and then transitioned to buffer containing [3H]-2-deoxyglucose for five minutes. After multiple wash steps, cells were lysed and the lysate was subjected to scintillation counting to quantify uptake. Data were prepared as raw counts per minute, which is proportional to 2-deoxyglucose uptake.
For the compound `Cc1cccc(CN2CCN([C@@H](c3ccccc3)c3ccc(Cl)cc3)CC2)c1` [S-meclizine, S-Meclizine], the basal glucose uptake result is reported as “promoted increased basal glucose uptake”.
